Data: ChEMBL document CHEMBL2062478, “Targeted kinase selectivity from kinase profiling data” (ACS Med Chem Lett, 2012)

Legend:
[1] = target: Cyclin-dependent kinase 1 (Homo sapiens, UniProt P06493); assay: Inhibition of CDC2
[2] = target: Platelet-derived growth factor receptor alpha (Homo sapiens, UniProt P16234); assay: Inhibition of PDGFRA
[3] = target: Cell division cycle 7-related protein kinase (Homo sapiens, UniProt O00311); assay: Inhibition of CDC7
[4] = target: Epidermal growth factor receptor (Homo sapiens, UniProt P00533); assay: Inhibition of EGFR
[5] = target: Tyrosine-protein kinase Lck (Homo sapiens, UniProt P06239); assay: Inhibition of LCK
Chain of Tyrosine-protein kinase Lck (P06239 whole entry): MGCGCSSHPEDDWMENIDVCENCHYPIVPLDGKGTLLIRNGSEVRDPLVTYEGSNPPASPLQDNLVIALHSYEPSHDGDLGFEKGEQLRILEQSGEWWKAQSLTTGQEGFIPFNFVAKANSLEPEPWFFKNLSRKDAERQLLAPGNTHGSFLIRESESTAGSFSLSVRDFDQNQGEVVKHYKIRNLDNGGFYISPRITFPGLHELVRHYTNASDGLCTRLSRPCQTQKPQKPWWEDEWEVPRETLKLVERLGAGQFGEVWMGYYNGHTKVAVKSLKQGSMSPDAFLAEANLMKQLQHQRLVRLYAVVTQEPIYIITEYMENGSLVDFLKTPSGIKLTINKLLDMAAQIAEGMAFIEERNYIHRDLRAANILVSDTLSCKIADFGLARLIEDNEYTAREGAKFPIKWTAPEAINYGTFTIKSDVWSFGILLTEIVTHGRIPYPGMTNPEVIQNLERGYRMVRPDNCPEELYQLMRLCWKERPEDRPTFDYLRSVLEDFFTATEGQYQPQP

Chain of Platelet-derived growth factor receptor alpha (P16234 whole entry): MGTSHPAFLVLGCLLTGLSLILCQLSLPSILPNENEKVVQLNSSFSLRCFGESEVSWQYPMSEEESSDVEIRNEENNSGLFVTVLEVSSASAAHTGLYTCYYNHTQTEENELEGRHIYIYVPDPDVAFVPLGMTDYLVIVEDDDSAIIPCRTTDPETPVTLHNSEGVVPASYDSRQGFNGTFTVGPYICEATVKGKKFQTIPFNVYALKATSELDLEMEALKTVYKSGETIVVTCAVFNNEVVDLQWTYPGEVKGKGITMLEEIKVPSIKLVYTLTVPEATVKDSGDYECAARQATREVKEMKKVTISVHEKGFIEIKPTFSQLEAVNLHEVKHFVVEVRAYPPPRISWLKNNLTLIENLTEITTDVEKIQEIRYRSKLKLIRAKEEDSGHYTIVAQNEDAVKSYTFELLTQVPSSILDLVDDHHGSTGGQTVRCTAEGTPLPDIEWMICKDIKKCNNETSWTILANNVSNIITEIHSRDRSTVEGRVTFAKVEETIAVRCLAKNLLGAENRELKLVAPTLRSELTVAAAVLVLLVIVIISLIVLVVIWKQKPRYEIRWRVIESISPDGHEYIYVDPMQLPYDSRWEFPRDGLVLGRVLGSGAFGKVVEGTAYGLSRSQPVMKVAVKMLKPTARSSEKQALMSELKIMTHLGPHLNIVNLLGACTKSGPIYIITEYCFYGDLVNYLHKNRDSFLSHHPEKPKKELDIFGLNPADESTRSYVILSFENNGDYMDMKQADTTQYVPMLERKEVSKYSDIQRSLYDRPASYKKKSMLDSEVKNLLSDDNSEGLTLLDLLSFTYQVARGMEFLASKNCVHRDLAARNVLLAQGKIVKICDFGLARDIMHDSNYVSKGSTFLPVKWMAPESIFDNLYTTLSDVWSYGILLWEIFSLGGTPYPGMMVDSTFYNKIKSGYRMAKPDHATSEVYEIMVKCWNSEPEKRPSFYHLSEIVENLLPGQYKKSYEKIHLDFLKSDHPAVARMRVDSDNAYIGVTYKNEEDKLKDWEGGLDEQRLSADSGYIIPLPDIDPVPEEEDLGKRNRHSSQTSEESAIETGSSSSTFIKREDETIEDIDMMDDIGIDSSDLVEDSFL
Chain of Cyclin-dependent kinase 1 (P06493 whole entry): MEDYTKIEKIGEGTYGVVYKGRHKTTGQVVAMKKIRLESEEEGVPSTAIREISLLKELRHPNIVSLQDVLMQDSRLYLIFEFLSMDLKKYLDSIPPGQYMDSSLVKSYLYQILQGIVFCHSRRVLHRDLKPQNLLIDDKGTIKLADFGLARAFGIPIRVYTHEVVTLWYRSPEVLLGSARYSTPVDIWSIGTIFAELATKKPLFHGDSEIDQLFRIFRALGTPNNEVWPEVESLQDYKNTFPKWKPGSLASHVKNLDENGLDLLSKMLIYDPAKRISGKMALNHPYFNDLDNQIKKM
Chain of Cell division cycle 7-related protein kinase (O00311 whole entry): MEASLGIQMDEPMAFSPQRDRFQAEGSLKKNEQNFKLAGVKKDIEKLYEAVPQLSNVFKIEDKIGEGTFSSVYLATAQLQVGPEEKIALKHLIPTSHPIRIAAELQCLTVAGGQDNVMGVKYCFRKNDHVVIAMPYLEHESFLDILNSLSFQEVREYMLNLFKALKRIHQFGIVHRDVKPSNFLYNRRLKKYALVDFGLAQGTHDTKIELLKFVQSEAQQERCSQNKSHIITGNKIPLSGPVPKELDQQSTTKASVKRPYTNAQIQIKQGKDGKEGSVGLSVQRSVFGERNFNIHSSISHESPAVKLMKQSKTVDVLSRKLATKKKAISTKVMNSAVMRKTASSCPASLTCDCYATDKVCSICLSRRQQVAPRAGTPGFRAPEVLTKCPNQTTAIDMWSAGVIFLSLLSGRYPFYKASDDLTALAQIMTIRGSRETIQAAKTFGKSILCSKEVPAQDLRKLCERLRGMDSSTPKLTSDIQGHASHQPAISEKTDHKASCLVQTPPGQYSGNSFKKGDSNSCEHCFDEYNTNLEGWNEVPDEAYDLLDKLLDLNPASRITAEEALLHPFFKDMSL
Chain of Epidermal growth factor receptor (P00533 whole entry): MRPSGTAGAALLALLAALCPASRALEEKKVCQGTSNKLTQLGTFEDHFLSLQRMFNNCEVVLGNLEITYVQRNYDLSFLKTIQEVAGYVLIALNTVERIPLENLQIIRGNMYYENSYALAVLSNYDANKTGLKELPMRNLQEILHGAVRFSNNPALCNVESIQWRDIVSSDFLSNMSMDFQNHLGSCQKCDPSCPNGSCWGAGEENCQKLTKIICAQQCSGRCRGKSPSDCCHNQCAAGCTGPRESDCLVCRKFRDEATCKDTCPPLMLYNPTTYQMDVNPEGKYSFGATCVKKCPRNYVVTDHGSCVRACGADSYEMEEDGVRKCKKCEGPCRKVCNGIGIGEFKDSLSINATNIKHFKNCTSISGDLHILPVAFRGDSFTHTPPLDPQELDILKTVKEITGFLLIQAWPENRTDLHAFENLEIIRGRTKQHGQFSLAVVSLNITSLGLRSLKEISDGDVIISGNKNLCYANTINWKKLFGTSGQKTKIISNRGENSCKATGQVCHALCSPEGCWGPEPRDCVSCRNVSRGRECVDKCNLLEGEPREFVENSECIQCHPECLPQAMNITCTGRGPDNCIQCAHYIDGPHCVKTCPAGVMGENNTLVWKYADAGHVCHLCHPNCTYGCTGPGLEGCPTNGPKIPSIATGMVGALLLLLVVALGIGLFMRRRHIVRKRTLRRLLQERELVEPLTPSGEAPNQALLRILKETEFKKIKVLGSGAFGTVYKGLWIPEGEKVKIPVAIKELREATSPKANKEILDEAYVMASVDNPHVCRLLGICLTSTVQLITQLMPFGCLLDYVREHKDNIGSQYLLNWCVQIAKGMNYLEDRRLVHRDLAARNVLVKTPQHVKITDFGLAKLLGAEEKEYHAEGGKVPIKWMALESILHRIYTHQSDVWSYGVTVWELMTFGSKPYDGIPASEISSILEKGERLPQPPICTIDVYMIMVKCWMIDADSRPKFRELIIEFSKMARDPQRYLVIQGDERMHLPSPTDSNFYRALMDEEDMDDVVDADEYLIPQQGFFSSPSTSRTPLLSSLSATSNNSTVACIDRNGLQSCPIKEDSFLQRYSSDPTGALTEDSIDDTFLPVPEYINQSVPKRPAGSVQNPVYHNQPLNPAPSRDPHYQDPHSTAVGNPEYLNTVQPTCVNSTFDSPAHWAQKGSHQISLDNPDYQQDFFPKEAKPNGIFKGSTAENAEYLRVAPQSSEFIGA

Ki [1] | Ki [2] | Compound | further results
> 10000 nM | – | O=C(Nc1n[nH]c2ccc(-c3cn(Cc4ccccc4)nn3)cc12)c1cccc(Cl)c1 | –
– | > 10000 nM | C[C@@H](O)Cn1cc(-c2cnc(N)c3c(-c4ccc(NC(=O)Nc5cccc(F)c5)cc4)csc23)cn1 | –
> 10000 nM | – | CN(C)[C@H]1CC[C@H](Nc2nc(Cl)cc(-c3c[nH]c4ncccc34)n2)CC1 | Ki [3]: 0.316 nM
39.8 nM | – | O[C@H]1CC[C@H](Nc2nc(Cl)cc(-c3c[nH]c4ncccc34)n2)CC1 | Ki [3]: 0.158 nM
– | – | O=C(Cc1ccccc1)Nc1cc(-c2nc3sccn3c2-c2ccnc(Nc3ccc(N4CCOCC4)cc3)n2)ccc1Cl | Ki [4]: > 10000 nM; Ki [5]: 79.4 nM
– | > 10000 nM | CC(C)(C(N)=O)n1cc(-c2cnc(N)c3c(-c4ccc(NC(=O)Nc5cccc(F)c5)cc4)csc23)cn1 | –
– | > 10000 nM | Cc1cccc(NC(=O)Nc2ccc(-c3csc4c(C#CC(C)(C)N)cnc(N)c34)cc2)c1 | –
